How the values were obtained:
[1] = PET/CT biodistribution in mice; type: in vivo, male nude mice
Description: PET and CT scans were performed using a small animal Albira PET/SPECT/CT scanner (Bruker Corporation, Billerica, MA, USA). PET images were analyzed using PMOD Version 3.505 (PMOD Technologies Ltd., Zürich, Switzerland). PET/CT maximum intensity projections were constructed using Inveon Research Workplace (Siemens Medical Solutions USA, Inc., Malvern, PA, USA). Statistical analysis was performed on GraphPad Prism 8 (GraphPad Software, San Diego, CA, USA).
PET Image Acquisition: All mice were manipulated in accordance to the MD Anderson Cancer Center’s IACUC guidelines. Mice were anesthetized with 2% isoflurane using oxygen as a carrier. For both C60-[^64Cu]Cu(NOTA) and [^64Cu]Cu(NOTA), 6 male nude mice were injected on the bed with ~200 μCi of activity in 150 μL of saline through a tail vein catheter. At the start of injection, a 20-min dynamic PET scan was acquired using the Albira PET/SPECT/CT scanner with a 15 cm field of view (FOV). The actual injected dose was calculated by measuring the pre- and post-injection activity in the syringe using a CRC-15R dose calibrator (Capintec, Inc., Florham Park, NJ, USA). The data were binned into 20-s time frames for the first 5 min, 60-s frames for the next 5 min, and 5-min frames for the next 10 min. Static PET images were then recorded at 3 h and 24 h post-injection (p.i.) for 10 min. A static PET image at 48 h p.i. was recorded for 20 min for C60-[^64Cu]Cu(NOTA) only. Following all PET scans, two 3 min CT scans were performed to cover the whole mouse body with a total FOV of 12.6 cm (400 μA, 45 kV, 250 projections).
The PET images were reconstructed using the Maximum Likelihood Expectation Maximization method with 12 iterations. The CT images were reconstructed using the Filtered Back Projection method. Scatter, randoms, decay, and attenuation corrections were applied through the Albira software. Volumes-of-interest (VOIs) were drawn for the major organs on the decay-corrected PET images using PMOD, and injected doses were used to calculate percent of injected dose per cubic centimeter of tissue (%ID/cc). […]

[2] = Two-phase decay model of heart TAC (blood pharmacokinetics); type: in vivo, male nude mice; conditions: mice, tail vein
Description: The PET images were reconstructed using the Maximum Likelihood Expectation Maximization method with 12 iterations. The CT images were reconstructed using the Filtered Back Projection method. Scatter, randoms, decay, and attenuation corrections were applied through the Albira software. Volumes-of-interest (VOIs) were drawn for the major organs on the decay-corrected PET images using PMOD, and injected doses were used to calculate percent of injected dose per cubic centimeter of tissue (%ID/cc). Errors in the averaged %ID/cc were reported as standard error of the mean (SEM). A non-linear regression analysis of the dynamic PET data for both C60-[^64Cu]Cu(NOTA) and [^64Cu]Cu(NOTA) was performed and fitted to a two-phase decay model to determine the blood half-life of each compound.
We also performed a non-linear regression analysis of the heart TAC data of both compounds using a two-phase decay model, which produced a p value of < 0.0001 by an extra sum-of-squares F test. The two-phase decay model consists of a distribution phase and an elimination phase. The fast distribution phase describes the rapid circulation of the material from the plasma to highly-perfused tissues, and the slow elimination phase describes the clearance of the material from the plasma and tissues through excretion. From this analysis, a blood half-life (t1/2) and rate constants (α, β) for each phase were determined along with the clearance rate (CL) and the area under the curve (AUC), which represents a normalized volume of distribution (Table 1).

## O=C([O-])CN1CCN(CC(=O)[O-])CCN(CC(=O)O)CC1.[64Cu+2] [[^64Cu]Cu(NOTA)]
[1]; PET
  period in which most of the material was cleared by renal excretion: between 20 min and 3 h p.i.
[1]; PET static scan, 48 h p.i., any organ
  uptake / detected signal at 48 h p.i.: negligible
[1]; PET, 20 min p.i.
  uptake in the kidneys compared to other major organs: significant uptake
[2]
  Area under Curve (AUC): 3.173 × 10^2 %ID·min/cc
  Distribution Half-Life: 0.4975 min
  Distribution Rate Constant (α): 1.393 min⁻¹
  Elimination Half-Life: 8.153 min
  Elimination Rate Constant (β): 0.08501 min⁻¹

Reference: paper PMC7023239, “Evaluation of the Biodistribution of Serinolamide-Derivatized C60 Fullerene” (Nanomaterials, 2020)
